Data as given in publication PMC6269060, “4-(1H-Pyrazol-1-yl) Benzenesulfonamide Derivatives: Identifying New Active Antileishmanial Structures for Use against a Neglected Disease” (Molecules, 2012).

How the values were obtained:
[1] = tested on: Leishmania infantum (L. chagasi syn.) promastigotes; assay: In vitro antileishmanial drug assay, L. infantum promastigotes; assay type: cell-based, Leishmania infantum (syn. chagasi) MCAN/BR/97/P142 strain; conditions: for S.I (selectivity index: CC50 drug/IC50 drug), Leishmania infantum: CC50 on murine peritoneal cells / IC50 on L. infantum promastigotes; for IC50: Leishmania infantum, promastigotes, 24 h, 26 °C, mean ± S.D. of three determinations
Protocol: (§1) Parasites in metacyclic phase (4 × 10^6 parasites/mL) were incubated with the derivatives (40–160 mg/mL) solubilized in dimethyl sulphoxide (DMSO, Sigma Chemical Co., St. Louis, MO, USA) at 26 °C for 24 h. The results were expressed as IC50/24 h, the concentration of a compound that caused a 50% reduction in survival/viability compared with non-treated culture. Pentamidine was used as reference drug and all tests were carried out in triplicate. Promastigotes of L. amazonensis (MHOM/BR/77/LTB0016 strain) and L. infantum (syn. chagasi) (MCAN/BR/97/P142 strain) were grown in Schneider’s insect medium (Sigma) at 26 °C in pH 7.2 supplemented with 10–20% (v/v) heat-inactivated fetal calf serum.

[2] = tested on: Leishmania amazonensis promastigotes; assay: In vitro antileishmanial drug assay, L. amazonensis promastigotes; assay type: cell-based, Leishmania amazonensis MHOM/BR/77/LTB0016 strain; conditions: for S.I (selectivity index: CC50 drug/IC50 drug), Leishmania amazonensis: CC50 on murine peritoneal cells / IC50 on L. amazonensis promastigotes; for IC50: Leishmania amazonensis, promastigotes, 24 h, 26 °C, mean ± S.D. of three determinations
Protocol: as §1

[3] = In vitro cytotoxicity (MTT); assay type: cell-based, BALB/c mice; conditions: BALB/c, mouse, murine peritoneal adherent cells
Protocol: The BALB/c mice from Laboratory Animals Nucleus (UFF) were sacrificed to obtain peritoneal cells and for both infection and isolation of Leishmania. The protocol assays was approved by the Institutional Committee of the Center for Biological Evaluation and Care of Research Animals (CEUA-UFF).
BALB/c mice peritoneal cavity cells (4 × 10^5cells/well) were incubated with the derivatives (10, 20, 40 and 80 µg/mL) in 96 wells plate for 24 h in […] RPMI 1640 medium, supplemented with 1 mmol·L^−1L-glutamine, […], penicillin G (10^5 IU·L^−1) and streptomycin sulfate (0.10 g·L^−1) at 37 °C in a humidified 5% CO2 atmosphere. After that, 3-[4,5-dimethylthiazol-2-yl]-2,5-diphenyltetrazolium bromide, MTT (Sigma) was added and the reaction was interrupted with DMSO after 2 h. The results were determined in 540 nm by using a MicroQuant spectrophotometer (Biotek-Instrument Inc., Winooski, VT, USA). All assays were repeated at least four times in quadruplicate. The cytotoxicity profile was expressed as CC50/24 h, the concentration of a compound that caused cytotoxicity compared to non-treated cultures. Index of selectivity (IS) was defined as the ratio of the CC50 value on the macrophage to the IC50 value on the L. amazonensis or L. infantum strains (promastigotes).

SMILES | S.I (selectivity index: CC50 drug/IC50 drug), Leishmania infantum [1] | IC50 [1] [µM] | S.I (selectivity index: CC50 drug/IC50 drug), Leishmania amazonensis [2] | IC50 [2] [µM] | CC50 at 24 h [3] [µM]
Cc1nn(-c2ccc(S(N)(=O)=O)cc2)c(Cl)c1Br [Compound 3a, 4-(4-Bromo-5-chloro-3-methyl-1H-pyrazol-1-yl)benzenesulfonamide] | 0.78 | 228 ± 190 | 0.78 | 228 ± 330 | 
Cc1nn(-c2ccc(S(=O)(=O)Nc3ccccc3)cc2)c(Cl)c1Br [Compound 3b, 4-(4-Bromo-5-chloro-3-methyl-1H-pyrazol-1-yl)-N-phenylbenzenesulfonamide] | 2.44 | 59 ± 10 | 2.05 | 70 ± 20 | 144
Cc1ccc(NS(=O)(=O)c2ccc(-n3nc(C)c(Br)c3Cl)cc2)cc1 [Compound 3c, 4-(4-Bromo-5-chloro-3-methyl-1H-pyrazol-1-yl)-N-(4methylphenyl)benzenesulfonamide] | 1.33 | 123 ± 50 | 0.51 | 318 ± 590 | 
Cc1nn(-c2ccc(S(=O)(=O)Nc3ccc(Br)cc3)cc2)c(Cl)c1Br [Compound 3d, 4-(4-Bromo-5-chloro-3-methyl-1H-pyrazol-1-yl)-N-(4-bromophenyl)benzenesulfonamide] | 0.49 | 99 ± 80 | 0.65 | 75 ± 10 | 
Cc1nn(-c2ccc(S(=O)(=O)Nc3ccc(Cl)cc3)cc2)c(Cl)c1Br [Compound 3e, 4-(4-Bromo-5-chloro-3-methyl-1H-pyrazol-1-yl)-N-(4-chlorophenyl)benzenesulfonamide] | 1.78 | 65 ± 40 | 1.61 | 72 ± 50 | 116
Cc1cc(Cl)n(-c2ccc(NS(=O)(=O)c3ccccc3)cc2)n1 [Compound 3f, N-[4-(5-Chloro-3-methyl-1H-pyrazol-1-yl)phenyl]benzenesulfonamide] | 0.76 | 138 ± 110 | 0.68 | 153 ± 220 | 
Cc1ccc(S(=O)(=O)Nc2ccc(-n3nc(C)cc3Cl)cc2)cc1 [Compound 3g, N-[4-(5-Chloro-3-methyl-1H-pyrazol-1-yl)phenyl]-4-methylbenzenesulfonamide] | 1.21 | 149 ± 120 | 1.33 | 136 ± 54 | 
N=C(N)c1ccc(OCCCCCOc2ccc(C(=N)N)cc2)cc1 [Pentamidine, reference compound] |  | 62 |  | 21 | 54
